Measured values taken from BindingDB's records for PubMed 34225181 (University of Electronic Science and Technology of China, 2021).

Assay: Inhibition of L1 (unknown origin) using cefazolin as substrate incubated for 5 mins by Agilent UV8453 spectrometric analysis

## O=C(NNC(=S)S)c1ccccc1O
  IC50: 380 nM
